Data taken from patent US20240415752A1, “A personal care composition comprising vitamin K2 and hydroxystearic acid” (Conopco, Inc., d/b/a UNILEVER, priority 2021, published 2024).

Test system: Normal human epidermal melanocytes (NHEM)
Assay: Melanin inhibition rate in UVB-irradiated melanocytes
Assay type: cell-based
Details: for Melanin inhibition rate (% inhibition against UV): NHEM, UVB 14 mJ/cm^2 every 24 h, 72 hours treatment, active concentration (wt %) as in table, melanin normalized to relative cell viability; for Boost of efficacy of Vitamin K2 (melanin inhibition), in words: combination with Encap MK7 (0.0024%) in NHEM
Experimental: Effect of actives like 12HSA, 4-HR (4-hexyl resorcinol) and Encap MK7 (encapsulated Vitamin K2 of the MK-7 type) were tested individually and in combination. The protocol for the invitro assay is summarized below:
Normal human epidermal melanocytes (NHEM) (Biocell, Xi'an, China) were grown in melanocyte growth medium (MGM) with human melanocyte growth supplement (both from Promocell, Germany). NHEM cells were seeded at a density of 7×10^4 cells in 2 mL MGM/well in 6-well plates and incubated for 24 hours in an incubator at 37° C. with 5% CO2. When reaching 50% confluency, cells were irradiated with UVB at 14 mJ/cm^2 and after UV irradiation, media was replaced with fresh media containing test materials. Every 24 hours in the following 72 hours, the cells were irradiated with UVB again, and the treatment were refreshed.
At the end of the 72 hours incubation period, cell viability was determined using the Alamar Blue method. Briefly, cells were washed twice with phosphate buffered saline (PBS) solution. Freshly prepared 10% Alamar Blue working solution was added into each well including the blank control wells without cells. Plates were incubated for 1 hour at 37° C. in the CO2 incubator. The Alamar Blue solution was then transferred to a 96-well plate to check fluorescence intensity at Ex/Em 530 nm/590 nm using a fluorescent plate reader.
After cell viability evaluation, cells were further washed with PBS for twice and the cells were detached with 0.25% trypsin and collected with centrifugation. The cell pellet was added with a mixed solution (H2O:EtOH:Et2O=2:5:5 v/v) and the mixture was vortexed and left stand still for 30 min. Then the mixture was centrifuged at 1000 r/min for 10 min. The lower fraction was collected and further extracted with a solution containing 10% (v/v) DMSO and 1 M NaOH and incubated at 80° C. in a water bath for 40 minutes. Melanin standard solution was prepared in similarly by adding the same DMSO/NaOH mixed solution to the commercially sourced melanin and incubated at 80° C. for 40 minutes. The extracted melanin and the serially diluted melanin standard solution was then transferred to a 96-well plate and the absorbance at 405 nm was detected using a plate reader. The melanin content was calculated from the melanin standard curve. The melanin concentrations (μg/mL) were then normalized to the relative cell viability. The melanin inhibition rates were calculated using the following equation.

| SMILES | Melanin inhibition rate (% inhibition against UV) [%] | Boost of efficacy of Vitamin K2 (melanin inhibition), in words |
| --- | --- | --- |
| CCCCCCC(O)CCCCCCCCCCC(=O)O (stereo not shown) [A, 12-hydroxystearic acid] | 25.3 | able to boost efficacy of Vitamin K2 |
| CCCCCCc1ccc(O)cc1O [C, 4-hexyl resorcinol] | 38.5 | does not do so |
